Test results reported in PubChem BioAssay (NCI).
“And” between values parts separate entries of the source, which are not always exact repeats. Equal values may be shown once.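 How tested: cells in 96-well plates exposed to compound for 48 hours at five concentrations. GI50 marks 50% less growth. TGI is the concentration that stops growth completely.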

Experiments:
Test in all cases: growth of human tumour cells (NCI), 48 h
UO-31 renal = system: UO-31 renal
NCI/ADR-RES ovarian = system: NCI/ADR-RES ovarian
HCT-15 colon = system: HCT-15 colon
OVCAR-3 ovarian = system: OVCAR-3 ovarian
NCI-H522 lung = system: NCI-H522 lung
RXF 393 renal = system: RXF 393 renal
786-0 renal = system: 786-0 renal
MDA-MB-231 breast = system: MDA-MB-231 breast
LOX IMVI melanoma = system: LOX IMVI melanoma
T-47D breast = system: T-47D breast
KM12 colon = system: KM12 colon

COc1cc2c3c(cc(Cl)nc3c1OC)C(=O)C(=O)N2
TGI (UO-31 renal): 26.7 µM
TGI (NCI/ADR-RES ovarian): 53.1 µM
TGI (HCT-15 colon): 40.8 µM
TGI (OVCAR-3 ovarian): 32.5 µM
TGI (NCI-H522 lung): 14.9 µM
TGI (RXF 393 renal): 27.5 µM
TGI (786-0 renal): 13.4 µM
TGI (MDA-MB-231 breast): 3.83 µM
TGI (LOX IMVI melanoma): 25.9 µM
TGI (T-47D breast): > 100 µM
TGI (KM12 colon): 30.3 µM

NCCCCNCCCNC(=O)CNC(=O)CC(O)C(N)CCCC(NC(=O)C(CN)NC(=O)C(O)CNC(=O)CC(N)c1ccc(O)cc1)C(=O)O (centres undefined)
TGI (UO-31 renal): > 10 µM
TGI (NCI/ADR-RES ovarian): > 10 µM
TGI (HCT-15 colon): > 10 µM
TGI (OVCAR-3 ovarian): > 10 µM
TGI (NCI-H522 lung): > 10 µM
TGI (RXF 393 renal): > 10 µM
TGI (786-0 renal): > 10 µM
TGI (MDA-MB-231 breast): > 10 µM
TGI (LOX IMVI melanoma): > 10 µM
TGI (T-47D breast): > 10 µM
TGI (KM12 colon): > 10 µM

CNC(=S)NNc1ncnc2c1c(-c1ccc(Cl)cc1)cn2-c1ccc(C)cc1
TGI (UO-31 renal): 23.4 µM
TGI (NCI/ADR-RES ovarian): 34.4 µM
TGI (HCT-15 colon): 21 µM
TGI (OVCAR-3 ovarian): 24 µM
TGI (NCI-H522 lung): 20.7 µM
TGI (RXF 393 renal): 32.3 µM
TGI (786-0 renal): 24.2 µM
TGI (MDA-MB-231 breast): 21.7 µM
TGI (LOX IMVI melanoma): 33.5 µM
TGI (T-47D breast): 24.1 µM
TGI (KM12 colon): 22 µM

N#Cc1nc(CCCN2C(=O)c3ccccc3C2=O)oc1N
TGI (UO-31 renal): > 100 µM
TGI (NCI/ADR-RES ovarian): > 100 µM
TGI (HCT-15 colon): > 100 µM
TGI (OVCAR-3 ovarian): > 100 µM
TGI (NCI-H522 lung): > 100 µM
TGI (RXF 393 renal): > 100 µM
TGI (786-0 renal): > 100 µM
TGI (MDA-MB-231 breast): > 100 µM
TGI (LOX IMVI melanoma): > 100 µM
TGI (T-47D breast): > 100 µM

CCN(CCCCCCCCCCN1CC(=O)N(CCCCCCCCCCN(CC)Cc2ccccc2OC)CC1=O)Cc1ccccc1OC
GI50 (UO-31 renal): 1.09 µM
TGI (UO-31 renal): 3.25 µM
GI50 (NCI/ADR-RES ovarian): 1.64 µM
TGI (NCI/ADR-RES ovarian): 3.24 µM
GI50 (HCT-15 colon): 1.55 µM
TGI (HCT-15 colon): 5.34 µM
GI50 (OVCAR-3 ovarian): 1.18 µM
TGI (OVCAR-3 ovarian): 2.48 µM
GI50 (RXF 393 renal): 0.646 µM
TGI (RXF 393 renal): 1.93 µM
GI50 (MDA-MB-231 breast): 1.56 µM
TGI (MDA-MB-231 breast): 3.61 µM
GI50 (LOX IMVI melanoma): 0.587 µM
TGI (LOX IMVI melanoma): 1.93 µM
GI50 (T-47D breast): 1.99 µM
TGI (T-47D breast): 6.33 µM
GI50 (KM12 colon): 1.03 µM
TGI (KM12 colon): 2.24 µM

Cc1nnc2n1-c1ccccc1N(Cc1ccccc1)CC2
TGI (UO-31 renal): > 100 µM
TGI (NCI/ADR-RES ovarian): 69.2 µM
TGI (HCT-15 colon): > 100 µM
TGI (OVCAR-3 ovarian): > 100 µM
TGI (RXF 393 renal): > 100 µM
TGI (786-0 renal): > 100 µM
TGI (MDA-MB-231 breast): > 100 µM
TGI (LOX IMVI melanoma): > 100 µM
TGI (T-47D breast): > 100 µM
TGI (KM12 colon): > 100 µM

COc1ccc(C2Oc3c(OC)cc(CCCO)cc3C2CO)cc1OC (centres undefined)
GI50 (UO-31 renal): 38.9 µM and > 100 µM
TGI (UO-31 renal): > 100 µM
TGI (NCI/ADR-RES ovarian): > 100 µM
TGI (HCT-15 colon): > 100 µM
TGI (OVCAR-3 ovarian): > 100 µM
TGI (NCI-H522 lung): > 100 µM
TGI (RXF 393 renal): > 100 µM
TGI (786-0 renal): > 100 µM
TGI (MDA-MB-231 breast): > 100 µM
GI50 (LOX IMVI melanoma): > 100 µM and 17 µM
TGI (LOX IMVI melanoma): > 100 µM
TGI (T-47D breast): > 100 µM
TGI (KM12 colon): > 100 µM

CCN1CCN(Cc2ccc(NC(=O)Nc3ccc(-n4ccc5c(NC(=O)c6ccccc6)nccc54)cc3)cc2C(F)(F)F)CC1
GI50 (HCT-15 colon): 0.227 µM
TGI (HCT-15 colon): 1.81 µM
GI50 (OVCAR-3 ovarian): 1.32 µM
TGI (OVCAR-3 ovarian): 2.63 µM
GI50 (T-47D breast): 3.54 µM
TGI (T-47D breast): 15.9 µM
GI50 (KM12 colon): 0.0271 µM
TGI (KM12 colon): 1.45 µM

CCCCCCc1cc2cc(-c3csc(-c4ccc(OC)cc4)n3)c(=O)oc2cc1O
TGI (UO-31 renal): 19.8 µM
TGI (HCT-15 colon): 46.8 µM
TGI (RXF 393 renal): 29.2 µM
TGI (786-0 renal): 18 µM
TGI (MDA-MB-231 breast): 25.3 µM
TGI (LOX IMVI melanoma): 30.4 µM
TGI (T-47D breast): 24.1 µM
TGI (KM12 colon): 68.2 µM

Cc1cccc(NS(=O)(=O)c2ccc(N=Nc3c(O)c(C(=O)O)cc4ccccc34)cc2)n1
TGI (UO-31 renal): > 100 µM
TGI (NCI/ADR-RES ovarian): > 100 µM
TGI (HCT-15 colon): > 100 µM
TGI (OVCAR-3 ovarian): > 100 µM
TGI (NCI-H522 lung): > 100 µM
TGI (RXF 393 renal): > 100 µM
TGI (786-0 renal): > 100 µM
TGI (MDA-MB-231 breast): > 100 µM
TGI (KM12 colon): > 100 µM

C=C1C[C@@H]2CC[C@@]34C[C@H]5O[C@H]6[C@@H](O3)[C@H]3O[C@H](CC[C@@H]3O[C@H]6[C@H]5O4)CC(=O)C[C@@H]3[C@@H](OC)[C@@H](C[C@H](O)CN)O[C@H]3C[C@H]3O[C@@H](CC[C@@H]1O2)C[C@@H](C)C3=C
TGI (UO-31 renal): > 1 µM
TGI (NCI/ADR-RES ovarian): > 1 µM
TGI (HCT-15 colon): > 0.76 µM
GI50 (OVCAR-3 ovarian): 0.0002 µM
TGI (OVCAR-3 ovarian): 0.000836 µM
TGI (NCI-H522 lung): 0.0412 µM
GI50 (RXF 393 renal): 0.00255 µM
TGI (786-0 renal): > 1 µM
TGI (MDA-MB-231 breast): 0.087 µM
TGI (LOX IMVI melanoma): > 0.533 µM
TGI (T-47D breast): > 1 µM
TGI (KM12 colon): 0.0104 µM

CCCCN1C(=O)CC2[C@@H]3CCc4cc(OC)ccc4C3CC[C@]2(C)C1=O (some centres undefined)
TGI (UO-31 renal): > 10 µM
TGI (NCI/ADR-RES ovarian): > 10 µM
TGI (HCT-15 colon): > 10 µM
TGI (OVCAR-3 ovarian): > 10 µM
TGI (RXF 393 renal): > 10 µM
TGI (786-0 renal): > 10 µM
TGI (MDA-MB-231 breast): > 10 µM
TGI (LOX IMVI melanoma): > 10 µM
TGI (T-47D breast): > 10 µM
TGI (KM12 colon): > 10 µM

O=C1/C(=C/c2ccncc2)C(n2cccc2)c2c(Br)sc(Br)c21 (centres undefined)
TGI (UO-31 renal): 5.42 µM
TGI (NCI/ADR-RES ovarian): 51.2 µM
TGI (HCT-15 colon): 11.1 µM
TGI (OVCAR-3 ovarian): 3.38 µM
TGI (NCI-H522 lung): 30.5 µM
TGI (RXF 393 renal): 3.96 µM
TGI (786-0 renal): 11.5 µM
TGI (MDA-MB-231 breast): 4.96 µM
TGI (LOX IMVI melanoma): 4.54 µM
TGI (T-47D breast): 16.4 µM
TGI (KM12 colon): 24.7 µM

COc1ccc(OC/C(N=Cc2ccncc2)=N/NC(=O)c2ccncc2)cc1
TGI (NCI/ADR-RES ovarian): > 100 µM
TGI (HCT-15 colon): > 100 µM
TGI (OVCAR-3 ovarian): > 100 µM
TGI (NCI-H522 lung): > 100 µM
TGI (RXF 393 renal): > 100 µM
TGI (786-0 renal): > 100 µM
TGI (MDA-MB-231 breast): > 100 µM
TGI (LOX IMVI melanoma): > 100 µM
TGI (T-47D breast): > 100 µM
TGI (KM12 colon): > 100 µM

Cc1cc(OCc2nnc3sc(NC(=O)c4ccccc4)nn23)ccc1Cl
TGI (UO-31 renal): 35.2 µM
TGI (NCI/ADR-RES ovarian): > 100 µM
TGI (HCT-15 colon): > 100 µM
TGI (OVCAR-3 ovarian): > 100 µM
TGI (NCI-H522 lung): 61 µM
TGI (RXF 393 renal): 83.3 µM
TGI (786-0 renal): > 100 µM
TGI (MDA-MB-231 breast): > 100 µM
TGI (LOX IMVI melanoma): 78.7 µM
TGI (T-47D breast): > 100 µM
TGI (KM12 colon): 52.6 µM

COc1ccc2c(c1)-c1c(c3cc(OC)ccc3n1CCN(C)C)CC2
TGI (UO-31 renal): 23.1 µM
TGI (NCI/ADR-RES ovarian): 32 µM
TGI (HCT-15 colon): 28.9 µM
TGI (OVCAR-3 ovarian): 28.1 µM
TGI (NCI-H522 lung): 34.1 µM
TGI (RXF 393 renal): 28.2 µM
TGI (786-0 renal): 22.7 µM
TGI (MDA-MB-231 breast): 28.2 µM
TGI (T-47D breast): 41 µM
TGI (KM12 colon): 36.7 µM

Oc1c(OCc2nnc(CCCCCCCCc3nnc(COc4ccc5ccccc5c4O)o3)o2)ccc2ccccc12
TGI (UO-31 renal): > 100 µM
TGI (NCI/ADR-RES ovarian): > 100 µM
TGI (HCT-15 colon): > 100 µM
TGI (NCI-H522 lung): > 100 µM
TGI (RXF 393 renal): > 100 µM
TGI (786-0 renal): 50.8 µM
TGI (MDA-MB-231 breast): > 100 µM
TGI (KM12 colon): > 100 µM

c1c(N2CCOCC2)ssc1=[N+]1CCOCC1
TGI (UO-31 renal): > 100 µM
TGI (HCT-15 colon): > 100 µM
TGI (NCI-H522 lung): > 100 µM
TGI (RXF 393 renal): > 100 µM
TGI (786-0 renal): > 100 µM
TGI (LOX IMVI melanoma): > 100 µM
TGI (KM12 colon): > 100 µM

O=P(OCc1ccccc1)(OCc1ccccc1)C(O)/C=C/c1ccccc1 (centres undefined)
TGI (UO-31 renal): 80.3 µM
TGI (NCI/ADR-RES ovarian): 62.9 µM
TGI (HCT-15 colon): > 100 µM
TGI (OVCAR-3 ovarian): 43.6 µM
TGI (NCI-H522 lung): 57.7 µM
TGI (RXF 393 renal): > 100 µM
TGI (786-0 renal): 39.5 µM
TGI (MDA-MB-231 breast): 56.4 µM
TGI (LOX IMVI melanoma): 31.5 µM
TGI (T-47D breast): 88.3 µM
TGI (KM12 colon): 43.1 µM
